Results on 46 compounds are retold here after BindingDB's records for doi:10.7270/Q27W69N8 (Srmlsc, 2009).

Structures are written as SMILES. “And” between values parts separate entries of the source, which are not always exact repeats. Equal values may be shown once. Where a name gives a salt, the structure may show the parent alone.

The target of the experiment is T1, M17 leucyl aminopeptidase (Plasmodium falciparum (isolate 3D7), UniProt Q8IL11).
T1 sequence (Q8IL11 whole entry): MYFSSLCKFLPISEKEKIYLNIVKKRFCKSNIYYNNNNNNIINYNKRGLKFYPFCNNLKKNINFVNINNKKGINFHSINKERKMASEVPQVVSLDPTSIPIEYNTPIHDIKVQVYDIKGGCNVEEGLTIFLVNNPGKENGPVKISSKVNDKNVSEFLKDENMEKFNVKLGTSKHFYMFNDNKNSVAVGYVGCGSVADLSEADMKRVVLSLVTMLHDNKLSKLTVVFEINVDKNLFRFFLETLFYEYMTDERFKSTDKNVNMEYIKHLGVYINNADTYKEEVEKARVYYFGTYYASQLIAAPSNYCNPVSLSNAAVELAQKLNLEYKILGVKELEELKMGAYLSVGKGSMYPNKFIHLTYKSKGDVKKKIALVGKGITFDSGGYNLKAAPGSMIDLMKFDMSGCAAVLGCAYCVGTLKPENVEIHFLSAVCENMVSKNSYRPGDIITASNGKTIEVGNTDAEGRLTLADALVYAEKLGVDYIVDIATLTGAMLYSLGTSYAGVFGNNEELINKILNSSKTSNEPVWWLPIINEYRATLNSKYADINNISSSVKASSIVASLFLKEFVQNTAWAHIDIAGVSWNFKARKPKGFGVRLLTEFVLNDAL
Kind of experiment: P. falciparum M17LAP inhibitors, primary screen, biochemical, fluorogenic H-Leu-NHMec substrate, 1536-well (AID 1619).
In turn, `COc1cc(CN=Nc2ccc(Cl)c(C(=O)O)c2)ccc1OC(=O)c1cccs1` showed an IC50 of 55.5 µM.

Regarding `C=CCOc1c(OC)cc(CN=Nc2cccc(C(=O)O)c2)c(Br)c1Br`, the IC50 was 1 µM.

For `COc1ccc2sc(-n3c(O)c4c(c3O)CC(C)=CC4)nc2c1`, the IC50 was found to be 35 µM.

`N#CC1C(=N)Oc2[nH]nc(-c3ccccc3)c2C1c1ccsc1` (stereo unspecified) yielded an IC50 of 64.5 µM.

For `C=C(c1ccc(OC)cc1)c1sc(=S)n(CCC(=O)O)c1O`, the IC50 is 30.1 µM and 27.4 µM.

On to `Cc1[nH][nH]c(=O)c1CCC(=O)NN=Cc1ccccc1[N+](=O)[O-]`, for which the 50% inhibitory concentration (IC50) worked out at 3.14 µM.

On to `CC(C)(C)c1ccc(CN=Nc2ccc(C(=O)O)cc2)cc1`, for which the IC50 was 13.3 µM.

In turn, `Cc1[nH][nH]c(=O)c1CCC(=O)NN=CC=Cc1ccccc1` had an IC50 of 51.4 µM.

For `CC(=NNC(=O)CCc1c(C)[nH][nH]c1=O)c1ccc([N+](=O)[O-])cc1`, the IC50 was found to be 80.6 µM.

`O=C(Cc1cc(=O)[nH][nH]1)NN=Cc1cccc(Cl)c1Cl`: half-maximal inhibition (IC50) required 103 µM.

The compound `Cc1[nH][nH]c(=O)c1CCC(=O)NN=Cc1ccc(Cl)cc1` registered an IC50 of 52.6 µM.

Regarding `C=c1cc2[nH]c(=O)c(=Cc3cccn3CCCOc3ccc(OC)cc3)c(=N)n2o1`, half-maximal inhibition (IC50) was put at 10.9 µM.

For `Cc1[nH][nH]c(=O)c1CCC(=O)NN=Cc1ccco1`, the IC50 was determined as 69.2 µM.

Compound `Cc1[nH][nH]c(=O)c1CCC(=O)NN=Cc1ccc(Cl)c(Cl)c1` yielded an IC50 of 15 µM.

`CCOc1ccccc1-n1c(O)cc(Sc2nnc(-c3ccccc3)[nH]2)c1O` [1-(2-ethoxyphenyl)-3-[(5-phenyl-4H-1,2,4-triazol-3-yl)thio]-2,5-pyrrolidinedione] returned an IC50 of 8.97 µM.

`Cc1ccc(Nc2nnc(SCC(=O)C(C#N)c3nc4ccccc4[nH]3)s2)c(C)c1` (stereo unspecified) [2-(1,3-dihydrobenzimidazol-2-ylidene)-4-[[5-(2,4-dimethylanilino)-1,3,4-thiadiazol-2-yl]thio]-3-oxobutanenitrile] showed an IC50 of 6.03 µM.

`CC(C=NNC(=O)Cc1c(C)[nH][nH]c1=O)=Cc1ccccc1` [2-(3-methyl-5-oxidanylidene-1,4-dihydropyrazol-4-yl)-N-[[(E)-2-methyl-3-phenyl-prop-2-enylidene]amino]ethanamide] yielded an IC50 of 52.8 µM. Against the preceding compound, the IC50 is about 8.8-fold higher.

`CN1C(=O)/C(=C/c2ccc(-c3ccccc3[N+](=O)[O-])o2)S/C1=N/c1ccc(Cl)c(C(=O)O)c1` [2-Chloro-5-[3-methyl-5-[1-[5-(2-nitro-phenyl)-furan-2-yl]-meth-(Z)-ylidene]-4-oxo-thiazolidin-(2Z)-ylideneamino]-benzoic acid] showed an IC50 of 6.24 µM. This IC50 lies about 8.5-fold lower than the previous one.

`COc1ccc(NC(=O)CSc2cc(O)n(-c3ccc4c(c3)OCCO4)c2O)cc1` [2-[1-(2,3-dihydro-1,4-benzodioxin-6-yl)-2,5-bis(oxidanylidene)pyrrolidin-3-yl]sulfanyl-N-(4-methoxyphenyl)ethanamide] yielded a concentration for half-maximal inhibition (IC50) of 16.1 µM. This IC50 lies about 2.6-fold higher than the previous one.

As to `COc1ccc(CN=Nc2nc(O)c(CC(=O)O)s2)cc1OCc1ccc(Cl)cc1` [2-[2-[2-[[3-[(4-chlorophenyl)methoxy]-4-methoxy-phenyl]methylidene]hydrazinyl]-4-oxidanylidene-1,3-thiazol-5-yl]ethanoic acid], half-maximal inhibition (IC50) was put at 20.3 µM.

Consider `O=NCc1cn(CC(=O)N2CCOCC2)c2ccccc12` [2-[3-(hydroxyiminomethyl)indol-1-yl]-1-morpholin-4-ylethanone], for which the midpoint of inhibition, the IC50, lay at 78.9 µM.

Compound `Cc1ccc(/N=C2/S/C(=C\c3cn(CC(=O)O)c4ccccc34)C(=O)N2C)cc1` [2-[3-[(Z)-[3-methyl-2-(4-methylphenyl)imino-4-oxo-5-thiazolidinylidene]methyl]-1-indolyl]acetic acid] had an IC50 of 11.4 µM.

With `C=CCN1C(=O)/C(=C/c2ccc(OCC(=O)O)cc2)SC1=Nc1nccs1` [2-[4-[(Z)-[4-oxidanylidene-3-prop-2-enyl-2-(1,3-thiazol-2-ylimino)-1,3-thiazolidin-5-ylidene]methyl]phenoxy]ethanoic acid], inhibition was half-maximal at 18.9 µM (IC50).

As for `O=C(CSc1n[nH]c(=O)[nH]c1=O)NN=Cc1ccccc1O` [2-[(3,5-dioxo-2,3,4,5-tetrahydro-1,2,4-triazin-6-yl)thio]-N'-(2-hydroxybenzylidene)acetohydrazide], the midpoint of inhibition, the IC50, lay at 129 µM.

For the compound `COc1cc(CN=Nc2ccc(Cl)c(C(=O)O)c2)ccc1OC(=O)c1ccco1` [2-chloro-5-[2-[[4-[2-furanyl(oxo)methoxy]-3-methoxyphenyl]methylidene]hydrazinyl]benzoic acid], the IC50 is 48.8 µM. This IC50 is about 2.6-fold lower than that of the compound before.

As for `CCOc1ccc(-n2c(O)cc(SCCN)c2O)cc1` [3-(2-Amino-ethylsulfanyl)-1-(4-ethoxy-phenyl)-pyrrolidine-2,5-dione], the IC50 was found to be 23.6 µM.

`CCCOc1ccc(-n2c(O)cc(SCCN)c2O)cc1` [3-(2-aminoethylthio)-1-(4-propoxyphenyl)pyrrolidine-2,5-dione;hydrochloride] had an IC50 of 12 µM.

`COc1ccccc1C=CC=NNC(=O)CCc1c(C)[nH][nH]c1=O` [3-(3-Methyl-5-oxo-4,5-dihydro-1H-pyrazol-4-yl)-propionic acid [(E)-3-(2-methoxy-phenyl)-prop-2-en-(E)-ylidene]-hydrazide]: the IC50 is 57.2 µM.

Regarding `CC(=NNC(=O)CCc1c(C)[nH][nH]c1=O)c1ccccc1` [3-(3-methyl-5-oxidanylidene-1,4-dihydropyrazol-4-yl)-N-(1-phenylethylideneamino)propanamide], 36.6 µM corresponded to half-maximal inhibition (IC50).

`C=c1[nH]n(CCC#N)c(=O)c1=Cc1ccc(N(C)C)cc1` [3-[(4E)-4-[[4-(dimethylamino)phenyl]methylidene]-3-methyl-5-oxo-1-pyrazolyl]propanenitrile] came in with an IC50 of 120 µM.

On to `O=C1N=c2ccccc2=C1NNc1ccc(C(=O)O)cc1` [4-[2-(2-oxidanylideneindol-3-yl)hydrazinyl]benzoic acid], for which 84.3 µM corresponded to half-maximal inhibition (IC50).

As to `COc1ccc(CN=Nc2ccc(C(=O)O)cc2)cc1Br` [4-[2-[(3-bromo-4-methoxyphenyl)methylidene]hydrazinyl]benzoic acid], the IC50 stood at 23.4 µM.

Regarding `Cc1noc(NS(=O)(=O)c2ccc(N=CCC(=O)c3ccc4c(c3)OCO4)cc2)c1C` [4-[[(Z)-3-(1,3-benzodioxol-5-yl)-3-oxoprop-1-enyl]amino]-N-(3,4-dimethyl-5-isoxazolyl)benzenesulfonamide], the IC50 was 13.9 µM.

In turn, `Cc1cc(CN=Nc2ccc([N+](=O)[O-])cn2)c(C)n1-c1ccc(C(=O)O)cc1` [4-{2,5-dimethyl-3-[2-(5-nitro-2-pyridinyl)carbonohydrazonoyl]-1H-pyrrol-1-yl}benzoic acid] yielded an IC50 of 12.7 µM. This IC50 and that of the compound before are within 1.5-fold of each other.

In the case of `O=C1CCCC2=Nc3[nH]c(=S)[nH]c(=O)c3C(c3ccc(Br)cc3)C12` (stereo unspecified) [5-(4-bromophenyl)-2-thioxo-2,3,5,8,9,10-hexahydropyrimido[4,5-b]quinoline-4,6(1H,7H)-dione], 16.7 µM corresponded to half-maximal inhibition (IC50).

In the case of `O=NCc1ccc(OCc2ccccc2)c(C(=O)O)c1` [5-(hydroxyiminomethyl)-2-phenylmethoxybenzoic acid], the concentration for half-maximal inhibition (IC50) stood at 16.4 µM.

Turning to `N#CC1C(=N)Oc2nc(-c3ccccc3)[nH]c2C1c1cccnc1` (stereo unspecified) [5-amino-2-phenyl-7-pyridin-3-yl-3,7-dihydropyrano[2,3-d]imidazole-6-carbonitrile], the IC50 amounted to 66.6 µM.

Turning to `Cc1ccc(SCc2cc(=O)[nH][nH]2)cc1` [5-p-Tolylsulfanylmethyl-2,4-dihydro-pyrazol-3-one], it took 1.77 µM to reach half-maximal inhibition (IC50).

As for `N#CC1C(=N)Oc2[nH]nc(-c3ccc(F)cc3)c2C1c1ccncc1` (stereo unspecified) [6-amino-3-(4-fluorophenyl)-4-pyridin-4-yl-2,4-dihydropyrano[2,3-c]pyrazole-5-carbonitrile], the concentration for half-maximal inhibition (IC50) is 94.3 µM.

In the case of `Cc1ccc(-c2n[nH]c3c2C(c2cccnc2)C(C#N)C(=N)O3)cc1` (stereo unspecified) [6-amino-3-(4-methylphenyl)-4-pyridin-3-yl-1,4-dihydropyrano[2,3-c]pyrazole-5-carbonitrile], the IC50 was found to be 25.8 µM.

Turning to `Cc1ccc(SCc2n[nH]c3c2C2(CCSCC2)C(C#N)C(=N)O3)cc1` (stereo unspecified) [6-amino-3-[(4-methylphenyl)sulfanylmethyl]spiro[2H-pyrano[2,3-c]pyrazole-4,4'-thiane]-5-carbonitrile], inhibition was half-maximal at 91 µM (IC50).

In turn, `CCOc1ccccc1C1c2c(-c3ccccc3)noc2N=C(N)C1C#N` (stereo unspecified) [6-amino-4-(2-ethoxyphenyl)-3-phenyl-2,4-dihydroisoxazolo[5,4-b]pyridine-5-carbonitrile] gave an IC50 of 52.7 µM.

`C/C(=C\c1ccco1)C1c2c(-c3ccccc3)n[nH]c2OC(=N)C1C#N` (stereo unspecified) [6-amino-4-[(E)-1-(furan-2-yl)prop-1-en-2-yl]-3-phenyl-2,4-dihydropyrano[2,3-c]pyrazole-5-carbonitrile] showed an IC50 of 83.7 µM.

Compound `Cc1ccc(-c2n[nH]c3c2C(C)C(C#N)C(=N)O3)cc1` (stereo unspecified) [6-amino-4-methyl-3-(4-methylphenyl)-2,4-dihydropyrano[2,3-c]pyrazole-5-carbonitrile] displayed an IC50 of 16.3 µM. Against the preceding compound, the IC50 is about 5.1-fold lower.

For `CCCc1[nH]nc2c1C(CCc1ccccc1)C(C#N)C(=N)O2` (stereo unspecified) [6-azanyl-4-(2-phenylethyl)-3-propyl-2,4-dihydropyrano[2,3-c]pyrazole-5-carbonitrile], the IC50 was 55.7 µM.

On to `CCOC(=O)C1C(=O)C(=Cc2ccc(OCC(=O)O)c(OCC)c2)SC1=Nc1ccc(C)cc1` (stereo unspecified) [(2-ethoxy-4-{[4-(ethoxycarbonyl)-5-[(4-methylphenyl)amino]-3-oxo-2(3H)-thienylidene]methyl}phenoxy)acetic acid], for which the IC50 was 15.6 µM.
